Assay results taken from US12545695B2, “Compounds for inhibiting neovascularization factors and use thereof” (UNIST (ULSAN NATIONAL INSTITUTE OF SCIENCE AND TECHNOLOGY), priority 2019, dated 2026).

Assays:
[1] = test system: TRAP-1; assay: Pull-down assay: client proteins SIRT3 and SDHB on GST-TRAP1 beads; type: binding; settings: TRAP1-bead form with isolated mitochondria and drug, 4° C., 18 hours (FIG. 14)
Protocol: A pull-down assay was performed to confirm whether SMx competitively binds to SIRT3 and SDHB, which are known as client proteins of TRAP-1. TRAP1 protein in the GST fusion form was purified from bacteria cells and then bound to glutathione beads to make a TRAP1-bead form, and then the TRAP1-bead form was bound to the mitochondria isolated from mammalian cells (Thermo Scientific mitochondria isolation kit) with a drug at 4° C. for 18 hours. The cells were treated with SMx, and gamitrinib and PU-H71, which are previously developed N-terminal domain inhibitors of hsp90s, as the drugs, according to the concentrations shown in the drawing. […] This is strong evidence that SMx has the ability to bind to the middle domain of TRAP-1.

[2] = test system: TRAP-1; assay: ATPase activity assay (PiColorLock Gold Phosphate Detection Kit); type: biochemical; settings: TRAP1 0.5 μM, 0.2 mM ATP, inhibitor 0.520 μM preincubated 30 minutes (FIG. 16)
Protocol: ATPase activity was measured by measuring the release of inorganic phosphates through the PiColorLock Gold Phosphate Detection Kit (Innova Biosciences) according to the manufacturer's manual. TRAP1 (0.5 μM) was cultured with 0.2 mM ATP in 100 mM Tris, 20 mM KCl, and 6 mM MgCl2 under the conditions of pH 7.0 and 37° C. for 3 hours. Thereafter, the PiColorLock Gold reagent and an accelerator (100:1) were added to a 100 μL ATP hydrolyzate sample. After culturing at 25° C. for 5 minutes, the change in color was stopped by adding 10 μL of a stop solution thereto, and the absorbance at 620 nm was measured by SYNERGY NEO microplate reader (BioTek Instruments).
For inhibitory ability analysis, TRAP1 was cultured with a predetermined concentration (0.520 μM) of inhibitor for 30 minutes and then stirred with ATP. Absorbance values were normalized to a DMSO control and data was expressed as % ATPase activity.
For inhibitory ability analysis, TRAP-1 was cultured with a predetermined concentration (0.520 μM) of inhibitor for 30 minutes and then stirred with ATP. Absorbance values were normalized to a DMSO control and data was expressed as % ATPase activity.

Compound	binding of the client protein (SIRT3, SDHB) to TRAP-1 [1]	ATPase activity of TRAP-1 [2]
CC(C)NCCCn1c(Sc2cc3c(cc2I)OCO3)nc2c(N)ncnc21 [PU-H71]	not significantly changed	significantly decreased according to the concentration
gamitrinib	not significantly changed	–
